Data from PubChem BioAssay AID1963852 (Molecular Pharmacology Branch, DTP, NCI, 2024).

System: 282377-053-R-J1-PDC complex spheroid viability
Experiment: Anticancer human tumor 282377-053-R-J1-PDC patient-derived colon adenocarcinoma cell line growth inhibition [POLQ]
Conditions: for IC50: curve of first compound; for viability, T/C: stronger effect = lower value
In short: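 Growth inhibition in 3D: complex spheroids (tumor PDC, HUVEC, MSC) treated with POLQ inhibitor combinations; where Cmax unknown, highest tested concentration 10 microM, except SN-38 at 1 microM.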

[1] = second compound 0.0316 µM, first compound 0.0316 µM
[2] = second compound 0.0316 µM, first compound 0.1 µM
[3] = second compound 0.0316 µM, first compound 0.316 µM
[4] = second compound 0.0316 µM, first compound 1 µM
[5] = second compound 0.0316 µM, first compound 3.16 µM
[6] = second compound 0.0316 µM, first compound 10 µM
[7] = second compound 0.1 µM, first compound 0.0316 µM
[8] = second compound 0.1 µM, first compound 0.1 µM
[9] = second compound 0.1 µM, first compound 0.316 µM
[10] = second compound 0.1 µM, first compound 1 µM
[11] = second compound 0.1 µM, first compound 3.16 µM
[12] = second compound 0.1 µM, first compound 10 µM
[13] = second compound 0.316 µM, first compound 0.0316 µM
[14] = second compound 0.316 µM, first compound 0.1 µM
[15] = second compound 0.316 µM, first compound 0.316 µM
[16] = second compound 0.316 µM, first compound 1 µM
[17] = second compound 0.316 µM, first compound 3.16 µM
[18] = second compound 0.316 µM, first compound 10 µM
[19] = second compound 1 µM, first compound 0.0316 µM
[20] = second compound 1 µM, first compound 0.1 µM
[21] = second compound 1 µM, first compound 0.316 µM
[22] = second compound 1 µM, first compound 1 µM
[23] = second compound 1 µM, first compound 3.16 µM
[24] = second compound 1 µM, first compound 10 µM
[25] = second compound 3.16 µM, first compound 0.0316 µM
[26] = second compound 3.16 µM, first compound 0.1 µM
[27] = second compound 3.16 µM, first compound 0.316 µM
[28] = second compound 3.16 µM, first compound 1 µM
[29] = second compound 3.16 µM, first compound 3.16 µM
[30] = second compound 3.16 µM, first compound 10 µM
[31] = second compound 10 µM, first compound 0.0316 µM
[32] = second compound 10 µM, first compound 0.1 µM
[33] = second compound 10 µM, first compound 0.316 µM
[34] = second compound 10 µM, first compound 1 µM
[35] = second compound 10 µM, first compound 3.16 µM
[36] = second compound 10 µM, first compound 10 µM
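Also: spheroids exposed to compounds for seven days.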
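For viability, T/C in this document: 100% = DMSO vehicle control viability.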

## CC(C)n1c(=O)n(C)c2cnc3cc(F)c(-c4ccc(OCCCN5CCCCC5)nc4)cc3c21 + Nc1ccc(C#CCN(C(=O)Cc2ncc(C(F)(F)F)cc2C(F)(F)F)c2ccc(F)cc2)nn1
Second compound 0.0316 µM
  IC50: > 10 µM
Second compound 0.1 µM
  IC50: > 10 µM
Second compound 0.316 µM
  IC50: > 10 µM
Second compound 1 µM
  IC50: > 10 µM
Second compound 3.16 µM
  IC50: > 10 µM
Second compound 10 µM
  IC50: > 10 µM
[1]
  viability, T/C: 101%
[2]
  viability, T/C: 105%
[3]
  viability, T/C: 107%
[4]
  viability, T/C: 103%
[5]
  viability, T/C: 110%
[6]
  viability, T/C: 92.7%
[7]
  viability, T/C: 117%
[8]
  viability, T/C: 113%
[9]
  viability, T/C: 108%
[10]
  viability, T/C: 108%
[11]
  viability, T/C: 97.2%
[12]
  viability, T/C: 101%
[13]
  viability, T/C: 111%
[14]
  viability, T/C: 91.5%
[15]
  viability, T/C: 109%
[16]
  viability, T/C: 104%
[17]
  viability, T/C: 106%
[18]
  viability, T/C: 94.5%
[19]
  viability, T/C: 116%
[20]
  viability, T/C: 105%
[21]
  viability, T/C: 103%
[22]
  viability, T/C: 112%
[23]
  viability, T/C: 118%
[24]
  viability, T/C: 102%
[25]
  viability, T/C: 105%
[26]
  viability, T/C: 106%
[27]
  viability, T/C: 103%
[28]
  viability, T/C: 115%
[29]
  viability, T/C: 108%
[30]
  viability, T/C: 111%
[31]
  viability, T/C: 121%
[32]
  viability, T/C: 119%
[33]
  viability, T/C: 114%
[34]
  viability, T/C: 128%
[35]
  viability, T/C: 127%
[36]
  viability, T/C: 122%

## CC1COCCN1c1cc(-c2ccnn2C)c2ccnc(-c3ccn[nH]3)c2n1 (stereo unspecified) + Nc1ccc(C#CCN(C(=O)Cc2ncc(C(F)(F)F)cc2C(F)(F)F)c2ccc(F)cc2)nn1
Second compound 0.0316 µM
  IC50: 2.12 µM
Second compound 0.1 µM
  IC50: 0.717 µM
Second compound 0.316 µM
  IC50: 0.826 µM
Second compound 1 µM
  IC50: 0.821 µM
Second compound 3.16 µM
  IC50: 0.997 µM
Second compound 10 µM
  IC50: 1.2 µM
[1]
  viability, T/C: 84.6%
[2]
  viability, T/C: 78.7%
[3]
  viability, T/C: 69.4%
[4]
  viability, T/C: 62.3%
[5]
  viability, T/C: 42.6%
[6]
  viability, T/C: 35.1%
[7]
  viability, T/C: 86.2%
[8]
  viability, T/C: 88%
[9]
  viability, T/C: 66.4%
[10]
  viability, T/C: 44.3%
[11]
  viability, T/C: 41.1%
[12]
  viability, T/C: 41.2%
[13]
  viability, T/C: 91%
[14]
  viability, T/C: 81%
[15]
  viability, T/C: 58.8%
[16]
  viability, T/C: 49.4%
[17]
  viability, T/C: 45.8%
[18]
  viability, T/C: 41.5%
[19]
  viability, T/C: 94.5%
[20]
  viability, T/C: 83.2%
[21]
  viability, T/C: 67.3%
[22]
  viability, T/C: 43.8%
[23]
  viability, T/C: 41.5%
[24]
  viability, T/C: 33%
[25]
  viability, T/C: 100%
[26]
  viability, T/C: 78.3%
[27]
  viability, T/C: 67.3%
[28]
  viability, T/C: 49.4%
[29]
  viability, T/C: 37.3%
[30]
  viability, T/C: 44.8%
[31]
  viability, T/C: 103%
[32]
  viability, T/C: 84.2%
[33]
  viability, T/C: 78.5%
[34]
  viability, T/C: 47.9%
[35]
  viability, T/C: 39.5%
[36]
  viability, T/C: 46.3%

## CC1COCCN1c1cc(C2(S(C)(=N)=O)CC2)nc(-c2ccnc3[nH]ccc23)n1 (stereo unspecified) + Nc1ccc(C#CCN(C(=O)Cc2ncc(C(F)(F)F)cc2C(F)(F)F)c2ccc(F)cc2)nn1
Second compound 0.0316 µM
  IC50: > 10 µM
Second compound 0.1 µM
  IC50: > 10 µM
Second compound 0.316 µM
  IC50: > 10 µM
Second compound 1 µM
  IC50: > 10 µM
Second compound 3.16 µM
  IC50: > 10 µM
Second compound 10 µM
  IC50: > 10 µM
[1]
  viability, T/C: 117%
[2]
  viability, T/C: 96.5%
[3]
  viability, T/C: 90.7%
[4]
  viability, T/C: 86.2%
[5]
  viability, T/C: 73.6%
[6]
  viability, T/C: 54.6%
[7]
  viability, T/C: 99.2%
[8]
  viability, T/C: 106%
[9]
  viability, T/C: 93.1%
[10]
  viability, T/C: 79.8%
[11]
  viability, T/C: 78.7%
[12]
  viability, T/C: 58.5%
[13]
  viability, T/C: 116%
[14]
  viability, T/C: 101%
[15]
  viability, T/C: 93.1%
[16]
  viability, T/C: 81.5%
[17]
  viability, T/C: 80%
[18]
  viability, T/C: 59.7%
[19]
  viability, T/C: 112%
[20]
  viability, T/C: 90.9%
[21]
  viability, T/C: 84.7%
[22]
  viability, T/C: 91.7%
[23]
  viability, T/C: 75.1%
[24]
  viability, T/C: 70.3%
[25]
  viability, T/C: 116%
[26]
  viability, T/C: 101%
[27]
  viability, T/C: 91.4%
[28]
  viability, T/C: 92.4%
[29]
  viability, T/C: 76.1%
[30]
  viability, T/C: 57.5%
[31]
  viability, T/C: 96.5%
[32]
  viability, T/C: 119%
[33]
  viability, T/C: 106%
[34]
  viability, T/C: 95%
[35]
  viability, T/C: 93%
[36]
  viability, T/C: 72.4%
